Results as given in ChEMBL document CHEMBL1136602 (Bioorg Med Chem Lett, 2003).

Legend:
[1] = target: Sigma non-opioid intracellular receptor 1 (Homo sapiens, UniProt Q99720); assay: Binding affinity towards Sigma-1 receptor
Mus musculus [2] = assay: Anticocaine activity was assessed through attenuation of convulsions caused by the intraperitoneal administration of cocaine 60 mg/kg in mice; assay type: functional
Sigma 2 receptor = assay: Binding affinity towards Sigma-2 receptor
Mus musculus [3] = assay: Anticocaine activity was assessed through attenuation of convulsions caused by the intraperitoneal administration of cocaine 60 mg/kg in mice; Agonist activity exacerbated the convulsive effects of cocaine; assay type: functional, organism-based; design: dose 60 mg/kg; conditions: filed as agonist

Sequence of Sigma non-opioid intracellular receptor 1 (Q99720 whole entry): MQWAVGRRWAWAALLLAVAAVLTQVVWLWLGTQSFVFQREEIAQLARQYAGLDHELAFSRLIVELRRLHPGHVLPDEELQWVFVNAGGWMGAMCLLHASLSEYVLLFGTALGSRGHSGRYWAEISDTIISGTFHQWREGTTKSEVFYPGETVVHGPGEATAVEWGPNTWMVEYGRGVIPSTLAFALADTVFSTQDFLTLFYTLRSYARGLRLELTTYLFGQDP

| SMILES | Ki [1] | AD50 (Mus musculus [2]) | Ki (Sigma 2 receptor) | AD50 (Mus musculus [3]) |
| --- | --- | --- | --- | --- |
| COc1cccc(CN2CCN(Cc3ccccc3)CC2)c1 | 0.39 nM | 17 mg/kg | 108 nM | – |
| COc1ccc(CN2CCN(Cc3ccccc3)CC2)cc1 | 0.47 nM | 27 mg/kg | 161 nM | – |
| CN(CCc1ccc(Cl)c(Cl)c1)CCN1CCCC1 | – | 2 mg/kg | 8 nM | – |
| Clc1cccc(CN2CCN(Cc3ccccc3)CC2)c1 | 0.46 nM | 8 mg/kg | 56.4 nM | – |
| Clc1ccc(CN2CCN(Cc3ccccc3)CC2)cc1Cl | 0.58 nM | – | 7.54 nM | Agonist activity exacerbated the convulsive effects of cocaine |
| Clc1ccccc1CN1CCN(Cc2ccccc2)CC1 | 5.3 nM | 15 mg/kg | 527 nM | – |
| Clc1ccc(CN2CCN(Cc3ccccc3)CC2)cc1 | 1.4 nM | 29 mg/kg | 187 nM | – |
| c1ccc(CN2CCN(Cc3ccccc3)CC2)cc1 | – | 23 mg/kg | 1270 nM | – |
| Clc1ccc(CN2CCN(Cc3ccccc3)CC2)c(Cl)c1 | 7.6 nM | 16 mg/kg | 123 nM | – |
